Measurements published in patent US11352350B2, “IRAK degraders and uses thereof” (Kymera Therapeutics, Inc., priority 2018, dated 2022).
Like-named read-outs stand apart in the source and are kept apart here.

Assays:
IRAK4 = IRAK4 (Homo sapiens (Human), UniProt Q9NWZ3); assay: IRAK4 MSD degradation in OCI-LY10; type: cell-based
Method in brief: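 Remaining IRAK4 quantified by electrochemiluminescent MSD sandwich assay with two anti-IRAK4 antibodies. Compounds were dosed as 8 concentrations in 1:3 steps from a 1 to 10 μM final top on OCI-LY10 cells, incubated 4 to 24 h at 37° C. under 5% CO2. DC50 fitted with a three-parameter logistic curve.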

OCI-LY10 = assay: CTG Cell Viability Assay - OCI-LY10; type: cell-based, human; conditions: OCI-LY10, 4 days, read-out: CTG Cell Viability Assay - OCI-LY10: Average external-IC50
Method in brief: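 Viability read by CellTiter-Glo luminescence after 4 days at 37° C under 5% CO2 with compound (top 10 μM final, 1:3 steps, 9 doses, DMSO 0.2%). Three-parameter logistic fit gave IC50.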

[1] = OCI-LY10, 4 hrs, MSD, read-out: IRAK4 MSD degradation in OCI-LY10 at 4 hrs: Average external-Abs DC50
[2] = OCI-LY10, 24 hrs, MSD, read-out: IRAK4 MSD degradation in OCI-LY10 at 24 hrs: Average external-Abs DC50
[3] = OCI-LY10, 4 hrs, read-out: IRAK4 MSD degradation in OCI-LY10 at 4 hrs: DC50
[4] = OCI-LY10, 24 hrs, read-out: IRAK4 MSD degradation in OCI-LY10 at 24 hrs: DC50

IRAK4, sequence (Q9NWZ3 whole entry): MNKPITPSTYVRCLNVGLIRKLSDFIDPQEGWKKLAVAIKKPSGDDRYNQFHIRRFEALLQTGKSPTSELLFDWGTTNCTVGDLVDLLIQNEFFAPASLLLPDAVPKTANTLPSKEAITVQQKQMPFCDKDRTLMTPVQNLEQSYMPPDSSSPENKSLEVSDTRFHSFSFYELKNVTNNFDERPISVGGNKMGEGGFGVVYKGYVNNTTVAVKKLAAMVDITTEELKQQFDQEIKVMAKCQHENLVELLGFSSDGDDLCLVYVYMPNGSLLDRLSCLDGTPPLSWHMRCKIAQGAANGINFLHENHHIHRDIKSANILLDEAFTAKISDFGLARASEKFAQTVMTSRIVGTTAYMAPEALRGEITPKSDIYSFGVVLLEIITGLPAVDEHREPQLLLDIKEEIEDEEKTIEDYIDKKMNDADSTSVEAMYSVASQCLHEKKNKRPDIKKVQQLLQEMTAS

Compound | DC50 (IRAK4; [1]) [nM] | IC50 (OCI-LY10; Homo sapiens, OCI-Ly10, 96 h) [nM] | DC50 (IRAK4; [2]) [nM] | DC50 (IRAK4; [3]) [nM] | DC50 (IRAK4; [4]) [nM] | IC50 (OCI-LY10) [nM]
Cn1c(=O)n(C2CCC(=O)NC2=O)c2cccc(CN3CCC(CN4CCC(n5cc(NC(=O)c6coc(-c7ccnc(NCC8CC8)c7)n6)c(C(F)F)n5)CC4)CC3)c21 (centres unmarked) [I-265] | 10 to 100 | < 50 |  |  |  | 
Cn1c(=O)n(C2CCC(=O)NC2=O)c2cccc(CN3CCC4(CC3)CN(C[C@H]3CC[C@H](n5cc(NC(=O)c6coc(-c7ccnc(NCC8CC8)c7)n6)c(C(F)F)n5)CC3)C4)c21 (some centres unmarked) [I-244] | < 10 | 100 to 500 |  |  |  | 
CN(CCc1ccc(CNc2cccc3c2C(=O)N(C2CCC(=O)NC2=O)C3=O)cc1)C[C@H]1CC[C@H](n2cc(NC(=O)c3cnn4ccc(N5C[C@H]6C[C@@H]5CO6)nc34)c(C(F)F)n2)CC1 (some centres unmarked) [I-359] | > 1000 | < 50 | > 1000 |  |  | 
Cn1c(=O)n(C2CCC(=O)NC2=O)c2cccc(CCCOC3CCN(C[C@H]4CC[C@H](n5cc(NC(=O)c6cnn7ccc(N[C@@H]8CCCC[C@@H]8O)nc67)c(C(F)(F)F)n5)CC4)CC3)c21 (some centres unmarked) [I-153] | 10 to 100 | > 1000 |  |  |  | 
CN(Cc1ccc(-n2cc(NC(=O)c3cnn4ccc(N5CCOCC5)nc34)c(C(F)F)n2)cc1)[C@H]1CC[C@H](Nc2cccc3c2C(=O)N(C2CCC(=O)NC2=O)C3=O)CC1 (some centres unmarked) [I-476] |  | > 1000 |  | 10 to 100 | 10 to 100 | 
CN(C[C@H]1CC[C@H](n2cc(NC(=O)c3coc(-c4ccnc(NCC5CC5)c4)n3)c(C(F)F)n2)CC1)C1CCN(Cc2cccc3c2n(C)c(=O)n3[C@@H]2CCC(=O)NC2=O)CC1 [I-309, 2-(2-((cyclopropylmethyl)amino)pyridin-4-yl)-N-(3-(difluoromethyl)-1-((1R,4r)-4-(((1-((1-((R)-2,6-dioxopiperidin-3-yl)-3-methyl-2-oxo-2,3-dihydro-1H-benzo [d]imidazol-4-yl)methyl)piperidin-4-yl)(methyl)amino)methyl)cyclohexyl)-1H-pyrazol-4-yl)oxazole-4-carboxamide] | 10 to 100 | < 50 |  |  |  | 
O=C1CCC(N2C(=O)c3cccc(N4CCC(CCCN5CCC(n6cc(NC(=O)c7cnn8ccc(N9CCOCC9)nc78)c(C(F)F)n6)CC5)CC4)c3C2=O)C(=O)N1 (centres unmarked) [I-228] | > 1000 | > 1000 |  |  |  | 
CN(CCCc1ccc(CNc2cccc3c2C(=O)N(C2CCC(=O)NC2=O)C3=O)cc1)C[C@H]1CC[C@H](n2cc(NC(=O)c3cnn4ccc(N5C[C@H]6C[C@@H]5CO6)nc34)c(C(F)F)n2)CC1 (some centres unmarked) [I-361] | > 1000 | 500 to 1000 | 10 to 100 |  |  | 
Cc1ccc(-n2nc(C3CCN(CCCCCOCCCc4ccc5c(c4)n(C)c(=O)n5C4CCC(=O)NC4=O)CC3)cc2NC(=O)c2cnn3cccnc23)nc1 (centres unmarked) [I-273] | > 1000 | > 1000 | > 1000 |  |  | 
O=C1CCC(N2C(=O)c3cccc(NCC4CCN(C[C@H]5CC[C@H](n6cc(NC(=O)c7cnn8ccc(N9CCOCC9)nc78)c(C(F)F)n6)CC5)CC4)c3C2=O)C(=O)N1 (some centres unmarked) [I-385] | > 1000 | < 50 | 10 to 100 |  |  | 
Cn1c(=O)n(C2CCC(=O)NC2=O)c2cccc(CN3CC4(CCN(C[C@H]5CC[C@H](n6cc(NC(=O)c7cnn8ccc(N9CCOCC9)nc78)c(C(F)F)n6)CC5)CC4)C3)c21 (some centres unmarked) [I-233] | < 10 | 100 to 500 |  |  |  | 
N#CCc1ccc2c(NC3CCC(N4CCN(C(=O)COCCOCCOCCNc5cccc6c5C(=O)N(C5CCC(=O)NC5=O)C6=O)CC4)CC3)ncnc2c1 (centres unmarked) [I-51] | > 1000 | > 1000 |  |  |  | 
Cn1c(=O)n(C2CCC(=O)NC2=O)c2cccc(CN3CCC(CCN4CCC(n5cc(NC(=O)c6cnn7ccc(N8CCOCC8)nc67)c(C(F)F)n5)CC4)CC3)c21 (centres unmarked) [I-177] | < 10 | 100 to 500 |  |  |  | 
CN(CCOCCOCCOC12CC3CC(CC(C3)C1)C2)C[C@H]1CC[C@H](n2cc(NC(=O)c3coc(-c4ccnc(NCC5CC5)c4)n3)c(C(F)F)n2)CC1 [I-174] | > 1000 | > 1000 | > 1000 |  |  | 
Cn1c(=O)n(C2CCC(=O)NC2=O)c2cccc(CCCOCC3CCN(C[C@H]4CC[C@H](n5cc(NC(=O)c6cnn7ccc(N8CCOCC8)nc67)c(C(F)F)n5)CC4)CC3)c21 (some centres unmarked) [I-198] | < 10 | > 1000 |  |  |  | 
Cn1c(=O)n(C2CCC(=O)NC2=O)c2cccc(CCCOC3CCN(C[C@H]4CC[C@H](n5cc(NC(=O)c6cnn7ccc(N[C@@H]8CCCC(F)(F)[C@@H]8N)nc67)c(C(F)F)n5)CC4)CC3)c21 (some centres unmarked) [I-300] | 100 to 1000 | 500 to 1000 |  |  |  | 
COc1cc(C(=O)N2CCC(CCCN(C)C[C@H]3CC[C@H](n4cc(NC(=O)c5coc(-c6ccnc(NCC7CC7)c6)n5)c(C(F)F)n4)CC3)CC2)ccc1NC(=O)[C@@H]1N[C@@H](CC(C)(C)C)[C@](C#N)(c2ccc(Cl)cc2F)[C@H]1c1cccc(Cl)c1F [I-141] | > 1000 | > 1000 | > 1000 |  |  | 
Cn1c(=O)n(C2CCC(=O)NC2=O)c2cccc(CN3CCC(N(C)[C@H]4CC[C@H](Oc5ncnc6ccc(C#N)cc56)CC4)CC3)c21 (some centres unmarked) [I-270] | > 1000 | > 1000 | > 1000 |  |  | 

Compound | DC50 (IRAK4; [1]) [nM] | IC50 (OCI-LY10; Homo sapiens, OCI-Ly10, 96 h) [nM] | DC50 (IRAK4; [2]) [nM] | DC50 (IRAK4; [3]) [nM] | DC50 (IRAK4; [4]) [nM] | IC50 (OCI-LY10) [nM]
Cn1c(=O)n(C2CCC(=O)NC2=O)c2ccc(CN3CCN(C[C@H]4CC[C@H](n5cc(NC(=O)c6coc(-c7ccnc(NCC8CC8)c7)n6)c(C(F)F)n5)CC4)CC3)cc21 (some centres unmarked) [I-243] | < 10 | > 1000 |  |  |  | 
CC[C@@H]1[C@H](F)C(=O)N[C@@H]1COc1ncc(C#CC2CCN(CC3CCN(Cc4cccc5c4n(C)c(=O)n5C4CCC(=O)NC4=O)CC3)CC2)c2cc(C(N)=O)c(OC)cc12 (some centres unmarked) [I-194] | 10 to 100 | > 1000 |  |  |  | 
CN(CCCOCCCNC(=O)c1ccc(CNCc2ccc(-c3ccc4c(cnn4CC4CC4)c3)cc2)cc1)C[C@H]1CC[C@H](n2cc(NC(=O)c3coc(-c4ccnc(NCC5CC5)c4)n3)c(C(F)F)n2)CC1 [I-131] | > 1000 | > 1000 | > 1000 |  |  | 
CN(C[C@H]1CC[C@H](n2cc(NC(=O)c3cnn4ccc(N5C[C@H]6C[C@@H]5CO6)nc34)c(C(F)F)n2)CC1)C1CCC(CNc2cccc3c2C(=O)N(C2CCC(=O)NC2=O)C3=O)CC1 (some centres unmarked) [I-324] | 100 to 1000 | < 50 |  |  |  | 
O=C1CCC(N2C(=O)c3cccc(NCCCOC4CCN(C[C@H]5CC[C@H](n6ncc(NC(=O)c7cnn8ccc(N9C[C@H]%10CC9CO%10)nc78)c6C(=O)O)CC5)CC4)c3C2=O)C(=O)N1 (some centres unmarked) [I-348] | > 1000 | > 1000 | > 1000 |  |  | 
CN1C(=O)C(C2CCC(=O)NC2=O)c2ccc(CN3CCC(N(C)C[C@H]4CC[C@H](n5cc(NC(=O)c6coc(-c7ccnc(NCC8CC8)c7)n6)c(C(F)F)n5)CC4)CC3)cc21 (some centres unmarked) [I-239] | 10 to 100 |  |  |  |  | > 1000
CN(CCc1ccc(CCNc2cccc3c2C(=O)N(C2CCC(=O)NC2=O)C3=O)cc1)C[C@H]1CC[C@H](n2cc(NC(=O)c3cnn4ccc(N5C[C@H]6C[C@@H]5CO6)nc34)c(C(F)F)n2)CC1 (some centres unmarked) [I-336] | 100 to 1000 | 50 to 100 | 10 to 100 |  |  | 
NC[C@H]1CC[C@H](n2cc(NC(=O)c3cnn4ccc(N5CCOCC5)nc34)c(C(F)F)n2)CC1 [I-313, N-[l-[4-(aminomethyl)cyclohexyl]-3-(difluoromethyl)pyrazol-4-yl]-5-morpholino-pyrazolo [1,5-a]pyrimidine-3-carboxamide] | > 1000 | > 1000 | > 1000 |  |  | 
O=C1CCC(N2C(=O)c3cccc(NCCCOCCCN4CCN(c5ncc(-n6cc(NC(=O)c7cnn8ccc(N9CCOCC9)nc78)c(C(F)F)n6)cn5)CC4)c3C2=O)C(=O)N1 (centres unmarked) [I-456] |  | < 50 |  | 100 to 1000 | 100 to 1000 | 
O=C1CCC(N2C(=O)c3cccc(NCCCOC[C@H]4CN(C[C@H]5CC[C@H](n6cc(NC(=O)c7cnn8ccc(N9CCOCC9)nc78)c(C(F)F)n6)CC5)CCO4)c3C2=O)C(=O)N1 (some centres unmarked) [I-332] | 100 to 1000 | 100 to 500 | 10 to 100 |  |  | 
CC[C@@H]1[C@H](F)C(=O)N[C@@H]1COc1ncc(C#C[C@H]2CC[C@H](CN(C)CCCOCCNc3cccc4c3C(=O)N(C3CCC(=O)NC3=O)C4=O)CC2)c2cc(C(N)=O)c(OC)cc12 (some centres unmarked) [I-387] | 100 to 1000 | < 50 |  |  |  | 
Cn1c(=O)n(C2CCC(=O)NC2=O)c2cccc(CCCOC3CCN(C[C@H]4CC[C@H](n5cc(NC(=O)c6cnn7ccc(N8CCC(O)CC8)nc67)c(C(F)F)n5)CC4)CC3)c21 (some centres unmarked) [I-157] | < 10 | > 1000 |  |  |  | 
Cn1c(=O)n(C2CCC(=O)NC2=O)c2cccc(CN3CCC(CCN4CC(n5cc(NC(=O)c6coc(-c7ccnc(NCC8CC8)c7)n6)c(C(F)F)n5)C4)CC3)c21 (centres unmarked) [I-263] | 10 to 100 | < 50 |  |  |  | 
CN(C[C@H]1CC[C@H](n2cc(NC(=O)c3cnn4ccc(N5CCOCC5)nc34)c(C(F)F)n2)CC1)C1CCC(Nc2cccc3c2C(=O)N(C2CCC(=O)NC2=O)C3=O)CC1 (some centres unmarked) [I-221] | < 10 | 50 to 100 |  |  |  | 
CC[C@@H]1[C@H](F)C(=O)N[C@@H]1COc1ncc(C#C[C@H]2CC[C@H](CN(C)C3CCN(Cc4ccc5c(c4)n(C)c(=O)n5C4CCC(=O)NC4=O)CC3)CC2)c2cc(C(N)=O)c(OC)cc12 (some centres unmarked) [I-190] | 100 to 1000 | > 1000 | 10 to 100 |  |  | 
CN(CC1CCN(Cc2ccc3c(c2)n(C)c(=O)n3C2CCC(=O)NC2=O)CC1)C[C@H]1CC[C@H](n2cc(NC(=O)c3coc(-c4ccnc(NCC5CC5)c4)n3)c(C(F)F)n2)CC1 (some centres unmarked) [I-127] | < 10 | > 1000 | < 10 |  |  | 
CN(C(=O)CCCNc1cccc2c1C(=O)N(C1CCC(=O)NC1=O)C2=O)C1CCN(C[C@H]2CC[C@H](n3cc(NC(=O)c4cnn5ccc(N6C[C@H]7C[C@@H]6CO7)nc45)c(C(F)F)n3)CC2)CC1 (some centres unmarked) [I-366] | < 10 | < 50 |  |  |  | 
